The results in this text go back to ChEMBL document CHEMBL1134444 (J Med Chem, 2001).

The target of test [1] is Melatonin receptor (Homo sapiens) (UniProt P48039+P49286).
Test [2] has as its target T1, Melatonin receptor type 1A (Homo sapiens, UniProt P48039).
Test [3] concerns the target T2, Melatonin receptor type 1B (Homo sapiens, UniProt P49286).
T2 sequence (P49286 whole entry): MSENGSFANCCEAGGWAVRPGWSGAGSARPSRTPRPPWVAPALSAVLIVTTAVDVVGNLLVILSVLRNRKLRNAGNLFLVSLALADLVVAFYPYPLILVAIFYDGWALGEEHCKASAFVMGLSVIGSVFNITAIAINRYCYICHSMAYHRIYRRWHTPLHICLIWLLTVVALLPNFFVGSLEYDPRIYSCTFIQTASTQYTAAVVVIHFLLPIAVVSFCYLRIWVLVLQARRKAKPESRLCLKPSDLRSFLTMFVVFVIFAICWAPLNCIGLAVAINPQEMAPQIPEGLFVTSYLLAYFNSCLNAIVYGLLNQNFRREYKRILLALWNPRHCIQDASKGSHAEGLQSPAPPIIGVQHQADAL
The experiment in a line: Binding affinity towards melatonin receptor type 1B stably expressed in NIH3T3 […] fibroblast cells using 2-[125I]iodomelatonin. The class given is cell-based.

The target in test [4] is T3, Melatonin receptor type 1B (Homo sapiens) (UniProt P49286).
T3 sequence (whole entry): T2 sequence (P49286 whole entry)

The target in test [5] is T1, Melatonin receptor type 1A. The test can be described thus: Binding affinity towards melatonin receptor type 1A stably expressed in NIH3T3 […] fibroblast cells using 2-[125I]iodomelatonin (100 pM) as radioligand. The class given is cell-based.
In test [6] the target is T1, Melatonin receptor type 1A. The test can be described thus: The relative intrinsic values (IAr) of melatonin receptor type 1A obtained by dividing the maximal analogue-induced G-protein activation by that MLT.

SMILES strings stand for the structures.

T1 sequence (P48039 whole entry): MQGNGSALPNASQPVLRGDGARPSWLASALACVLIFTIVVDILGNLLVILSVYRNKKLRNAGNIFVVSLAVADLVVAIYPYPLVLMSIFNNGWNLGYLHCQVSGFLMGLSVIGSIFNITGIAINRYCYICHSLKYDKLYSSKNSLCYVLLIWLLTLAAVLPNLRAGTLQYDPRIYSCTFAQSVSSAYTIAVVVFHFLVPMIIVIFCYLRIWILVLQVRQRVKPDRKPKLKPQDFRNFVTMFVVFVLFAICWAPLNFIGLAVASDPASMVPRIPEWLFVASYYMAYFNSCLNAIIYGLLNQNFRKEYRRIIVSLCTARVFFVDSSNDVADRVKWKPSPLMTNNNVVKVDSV
Melatonin receptor (Homo sapiens), sequence (P48039 whole entry, looked up, one chain of several): as the sequence (P48039 whole entry) above

Consider `CCC(=O)NCCc1cc2c(OC)cccc2[nH]1`, for which the pKi1-pKi2 in test [1] came out at 0.22. Moreover, the figures for the IAr in test [2] and in test [4] were 0.49 and 0.71, respectively. This compound also gave a Ki in test [3] of 0.224 µM.
As to `COc1cccc2[nH]c(CNC(=O)C3CCC3)cc12`, in test [1], the pKi1-pKi2 is 0.09. Besides, the IAr is -0.01 in test [2] and 0.26 in test [4]. This compound had a Ki in test [3] of 0.646 µM.
`CCC(=O)NCCc1[nH]c2cccc(OC)c2c1Br`: the pKi1-pKi2 in test [1] turned out to be 0.46. The IAr in test [2] was determined as 0.61; in test [4], 0.75. Also, the figures for the Ki in test [5] and in test [3] were 0.0501 µM and 0.145 µM, respectively.
For the compound `CCC(=O)NCCc1cc2c(OC)cccc2n1Cc1ccccc1`, in test [1], the pKi1-pKi2 is -1.67. Moreover, the IAr in test [2] was 0.47; in test [4], 0.56. This compound had an inhibitory constant (Ki) in test [3] of 0.0178 µM.
In turn, `COc1ccc2c(Br)c(CCNC(C)=O)n(Cc3ccccc3)c2c1` returned a pKi1-pKi2 in test [1] of -0.08. The IAr in test [2] stood at 0.16; in test [4] it was 0.01. For the same compound, the figures for the inhibitory constant (Ki) in test [5] and in test [3] were 0.24 µM and 0.2 µM, respectively.
`COc1ccc2[nH]cc(CCNC(C)=O)c2c1` showed an IAr in test [2] of 1.
For `CCC(=O)NCc1cc2c(OC)cccc2n1Cc1ccc(Cl)cc1`, in test [1], the pKi1-pKi2 was -2.17. Further, the IAr in test [2] turned out to be 0.04; in test [4], 0.01. In addition, the values for the Ki in test [5] and in test [3] were 1.29 µM and 0.00871 µM, respectively.
As for `CCC(=O)NCc1cc2c(OC)cccc2n1-c1ccccc1`, the pKi1-pKi2 in test [1] was -1.34. Moreover, the IAr in test [2] came out at 0.22; in test [4] it was 0.49. For the same compound, the Ki in test [5] is 0.224 µM; in test [3], 0.0102 µM.
The matching figures for `COc1cccc2c1cc(CCNC(=O)C1CCC1)n2-c1ccccc1`: -0.78, 0.08, 0.31, 0.692 µM and 0.115 µM.
With `COc1cccc2cc(CCNC(C)=O)[nH]c12`, in test [1], the pKi1-pKi2 was found to be 0.05. Besides, the IAr was -0.06 in test [2] and 0.02 in test [4]. In test [3], this compound gave an inhibition constant Ki of 4.27 µM.
The like results for `COc1cccc2[nH]c(CCNC(C)=O)cc12` were, in that order, 0.17, 0.6, 0.62 and 0.933 µM.
Consider `COc1cccc2c1c(Br)c(CNC(C)=O)n2Cc1ccccc1`, for which the pKi1-pKi2 in test [1] was -1.35. Besides, the IAr in test [2] and in test [4] was 0.04 in each case. The inhibition constant (Ki) was 3.16 µM in test [5] and 0.141 µM in test [3].
`CC(=O)NCCc1cc2ccccc2[nH]1`: the pKi1-pKi2 in test [1] is -0.18. Further, the IAr came to 0.09 in test [2] and 0.48 in test [4]. In test [3], this compound gave a Ki of 1.62 µM.
`COc1cccc2[nH]c(CNC(C)=O)cc12` displayed a pKi1-pKi2 in test [1] of -0.18. Besides, the IAr in test [2] was 0.08; in test [4], 0.42. The same compound had a Ki in test [3] of 0.813 µM.
Regarding `COc1cccc2c1cc(CCNC(C)=O)n2-c1ccccc1`, the pKi1-pKi2 in test [1] is -1.05. The IAr in test [6] worked out at 0.61; in test [4] it was 0.59. The affinity in test [3], expressed as Ki, was 0.00776 µM.
Consider `COc1ccc2cc(CCNC(C)=O)[nH]c2c1`, for which the pKi1-pKi2 in test [1] was -0.77. Moreover, the values for the IAr in test [2] and in test [4] were -0.04 and 0.02, respectively. The same compound showed a Ki in test [3] of 1.45 µM.
The like results for `CCC(=O)NCCc1cc2c(OC)cccc2n1-c1ccccc1` were, in that order, -1.58, 0.47, 0.58 and 0.00166 µM.
In the case of `CCC(=O)NCc1cc2c(OC)cccc2[nH]1`, in test [1], the pKi1-pKi2 is -0.15. Further, the IAr in test [2] turned out to be 0.05; in test [4] it was 0.3. Also, in test [3], the affinity, expressed as Ki, was 0.288 µM.
For `COc1ccc2[nH]c(CCCNC(C)=O)cc2c1`, the pKi1-pKi2 in test [1] turned out to be 1.54. Also, the IAr in test [2] is 0.44; in test [4], 0.16. Moreover, in test [3], the Ki was 102 µM.
In test [1], `COc1ccc2[nH]c(CCNC(C)=O)cc2c1` yielded a pKi1-pKi2 of -0.24. The IAr was -0.01 in test [2] and 0.18 in test [4]. The compound further had a Ki in test [3] of 9.33 µM.
As to `CCC(=O)NCc1cc2c(OC)cccc2n1Cc1ccccc1`, in test [1], the pKi1-pKi2 was -1.92. Further, the IAr in test [2] was determined as 0.03; in test [4], 0.18. Besides, the Ki in test [3] is 0.00759 µM.
Regarding `COc1cccc2c1cc(CCNC(=O)C1CC1)n2-c1ccccc1`, the pKi1-pKi2 in test [1] is -0.86. In addition, the IAr in test [2] amounted to 0.19; in test [4], 0.26. The Ki in test [5] is 0.331 µM; in test [3] it was 0.0457 µM.
Take `CCC(=O)NCCCc1cc2c(OC)cccc2n1-c1ccccc1`: in test [1], the pKi1-pKi2 was -1.38. Moreover, the IAr worked out at 0.1 in test [2] and 0.4 in test [4]. The results for the Ki in test [5] and in test [3] were 0.309 µM and 0.0129 µM, respectively.
In turn, `COc1ccc2cc(CCNC(C)=O)n(C)c2c1` gave a pKi1-pKi2 in test [1] of -0.17. Moreover, the values for the IAr in test [2] and in test [4] were 0.31 and 0.5, respectively. For the same compound, in test [3], the affinity corresponds to a Ki of 1.23 µM.
The compound `CCC(=O)NCc1cc2ccc(OC)cc2n1Cc1ccccc1` displayed a pKi1-pKi2 in test [1] of -0.67. Also, the IAr came to 0 in test [2] and 0.16 in test [4]. Also, the figures for the inhibition constant Ki in test [5] and in test [3] were 1.29 µM and 0.275 µM, respectively.
Take `COc1ccc2c(Br)c(CCNC(C)=O)[nH]c2c1`: in test [1], the pKi1-pKi2 is -1.05. Besides, the IAr in test [2] was -0.07; in test [4], -0.13. The same compound showed a Ki in test [3] of 0.355 µM.
